According to patent publication US7531545B2, “2-amino-3,4-dihydro-pyrido[3,4-d]pyrimidine derivatives useful as inhibitors of β-secretase (BACE)” (Janssen Pharmaceutica, N.V., priority 2005, dated 2009):
pIC50: −log10 of the molar value. Several values for one entry are separate records, joined by “and”; a condition that tells them apart may be missing. Identical values can stand only once. Counter-ions that a name gives are not always drawn.

Molecular target: human BACE-1 (Homo sapiens, UniProt P56817)
Sequence (P56817 46-501): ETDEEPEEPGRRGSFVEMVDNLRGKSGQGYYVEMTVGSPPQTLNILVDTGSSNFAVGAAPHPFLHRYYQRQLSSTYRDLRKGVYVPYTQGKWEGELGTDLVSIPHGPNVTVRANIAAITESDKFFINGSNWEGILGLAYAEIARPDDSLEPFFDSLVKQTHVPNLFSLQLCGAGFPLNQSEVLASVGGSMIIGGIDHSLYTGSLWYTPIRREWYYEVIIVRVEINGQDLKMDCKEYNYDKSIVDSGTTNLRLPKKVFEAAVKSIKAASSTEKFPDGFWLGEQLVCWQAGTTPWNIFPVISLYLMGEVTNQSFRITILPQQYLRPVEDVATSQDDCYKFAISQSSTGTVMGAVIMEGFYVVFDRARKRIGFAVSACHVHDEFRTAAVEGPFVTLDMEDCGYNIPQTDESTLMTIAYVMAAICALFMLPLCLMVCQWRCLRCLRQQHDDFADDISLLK
Assay: CEREP BACE Inhibition Assay
Type: biochemical
Settings: recombinant enzyme; for inhibition at 1 µM / % Inhibition @ 1.0 μM: percent inhibition of the control activity; for inhibition at 1 µM: read-out: % Inhibition @ 1.0 μM; for pIC50: read-out: IC50
Procedure: More specifically the assay, run at 50 μL in a 96 well plate, evaluated the effect of test compound on the activity of the human BACE-1 quantified by measuring the formation of Mca-S-E-V-N-L-NH2 from […], using a recombinant enzyme. The test compound, reference compound or water (control) were added to a buffer containing 0.09 M sodium acetate (pH 4.5) and 0.25 μg BACE-1. Compound interference with the fluorimetric detection method due to autofluorescence was then checked by measurements at the wavelengths defined to evaluate the enzyme activity. […] For control basal measurement, the substrate was omitted from the reaction mixture. […] The standard inhibitory reference compound was OM99-2, which was tested in each experiment at several concentrations to obtain an inhibition curve from which its IC50 value was calculated.

Row | inhibition at 1 µM [%] | pIC50 | % Inhibition @ 1.0 μM [%] | % Inhibition @ 1.0 μM (hydrochloride salt) [%] | SMILES
1 | 101 | 6.85 | – | – | NC1=Nc2cnc(Oc3ccccc3)cc2CN1[C@@H](CCC(=O)N(CCOCCOCCOCCO)C1CCCCC1)C1CCCCC1 [Compound 176, 4-(2-Amino-6-phenoxy-4H-pyrido[3,4-d]pyrimidin-3-yl)-4-(S),N-dicyclohexyl-N-(2-{2-[2-(2-hydroxy-ethoxy)-ethoxy]-ethoxy}-ethyl)-butyramide]
2 | 80 | 6.49 | – | – | C[C@@H](O)[C@H](CCC(=O)N(C)C1CCCCC1)N1Cc2cc(Oc3ccccc3)ncc2N=C1N [Compound 177]
3 | 100 | 7.09 | – | – | CC(C)(CO)CNC(=O)CC[C@@H](C1CCCCC1)N1Cc2cc(Oc3ccccc3)ncc2N=C1N [Compound 179]
4 | 99 | 7.04 | – | – | CC(C)(CO)NC(=O)CC[C@@H](C1CCCCC1)N1Cc2cc(Oc3ccccc3)ncc2N=C1N [Compound 180]
5 | 96 | 7.07 | – | – | CC(C)(C)OCCNC(=O)CC[C@@H](C1CCCCC1)N1Cc2cc(Oc3ccccc3)ncc2N=C1N [Compound 181]
6 | 100 | 7.05 | – | – | CC(C)(C)CCN(CCC[C@@H](C1CCCCC1)N1Cc2cc(Oc3ccccc3)ncc2N=C1N)CCN1CCOCC1 [Compound 182]
7 | 70 | 6.24 | – | – | C[C@H](CO)N(C)C(=O)CC[C@@H](C1CCCCC1)N1Cc2cc(Oc3ccccc3)ncc2N=C1N [Compound 183]
8 | 45 | 5.64 | – | – | C[C@H](CO)N(C)CCC[C@@H](C1CCCCC1)N1Cc2cc(Oc3ccccc3)ncc2N=C1N [Compound 184]
9 | 85 | 6.57 | – | – | C[C@@H](OCc1ccccc1)[C@H](CCC(=O)N(CCC(C)(C)C)Cc1ccncc1)N1Cc2cc(Oc3ccccc3)ncc2N=C1N [Compound 185, 4-(S)-(2-Amino-6-phenoxy-4H-pyrido[3,4-d]pyrimidin-3-yl)-5-(R)-benzyloxy-hexanoic acid (3,3-dimethyl-butyl)-pyridin-4-ylmethyl-amide]
10 | 81 | 6.72 | – | – | C[C@@H](O)[C@H](CCC(=O)NCC(C)(C)C)N1Cc2cc(Oc3ccccc3)ncc2N=C1N [Compound 186, 4-(S)-(2-Amino-6-phenoxy-4H-pyrido[3,4-d]pyrimidin-3-yl)-5-(R)-hydroxy-hexanoic acid (2,2-dimethyl-propyl)-amide]
11 | 99 | 7.36 | – | – | CN(CCC[C@@H](C1CCCCC1)N1Cc2cc(Oc3ccccc3)ncc2N=C1N)C1CCCCC1 [Compound 187]
12 | 99 | 6.85 | – | – | CC(C)CN(CCN1CCOCC1)C(=O)CC[C@@H](C1CCCCC1)N1Cc2cc(Oc3ccccc3)ncc2N=C1N [Compound 189]
13 | 86 | 6.72 | – | – | CC(C)CN(CCN1CCOCC1)C(=O)CC[C@@H](C(C)C)N1Cc2cc(Oc3ccccc3)ncc2N=C1N [Compound 190]
14 | 101 | 7.14 | – | – | CC(C)CN(CCC[C@@H](C1CCCCC1)N1Cc2cc(Oc3ccccc3)ncc2N=C1N)CCN1CCOCC1 [Compound 192]
15 | 60 | 7.27 | – | – | CC(C)CN(CCC[C@@H](C(C)C)N1Cc2cc(Oc3ccccc3)ncc2N=C1N)CCN1CCOCC1 [Compound 193]
16 | 34 | – | – | – | CN(C(=O)CCCN1Cc2cc(Oc3ccccc3)ncc2N=C1N)C1CCCCC1 [Compound 196, 4-(2-Amino-6-phenoxy-4H-pyrido[3,4-d]pyrimidin-3-yl)-N-cyclohexyl-N-methyl-butyramide]
17 | 95 | 6.85 | – | – | NC1=Nc2cnc(Oc3ccccc3)cc2CN1[C@@H](CCn1cc(C2CCCCC2)nn1)C1CCCCC1 [Compound 198, 3-[—(S)-cyclohexyl-3-(4-cyclohexyl-[1,2,3]triazol-1-yl)-propyl]-6-phenoxy-3,4-dihydro-pyrido[3,4-d]pyrimidin-2-ylamine]

Row | inhibition at 1 µM [%] | pIC50 | % Inhibition @ 1.0 μM [%] | % Inhibition @ 1.0 μM (hydrochloride salt) [%] | SMILES
18 | 100 | 7.07 | – | – | CC(C)(C)c1cn(CC[C@@H](C2CCCCC2)N2Cc3cc(Oc4ccccc4)ncc3N=C2N)nn1 [Compound 199]
19 | 50 | 6.11 and 6.12 | 53 | – | CC(C)(C)CNC(=O)C[C@@H](C1CCCCC1)N1Cc2cc(Oc3ccccc3)ncc2N=C1N [Compound 200]
20 | 88 | 6.66 | – | 73 | CC(C)(C)CCNC(=O)C[C@@H](C1CCCCC1)N1Cc2cc(Oc3ccccc3)ncc2N=C1N [Compound 202, 3-(2-Amino-6-phenoxy-4H-pyrido[3,4-d]pyrimidin-3-yl)-3(S)-cyclohexyl-N-(3,3-dimethyl-butyl)-propionamide hydrochloride salt]
21 | 100 | 7.11 | – | – | CC(C)(C)CNC(=O)CC[C@@H](C1CCCCC1)N1Cc2cc(Oc3ccccc3)ncc2N=C1N [Compound 204]
22 | 81 | 6.54 | – | – | CN(C(=O)C[C@@H](C1CCCCC1)N1Cc2cc(Oc3ccccc3)ncc2N=C1N)C1CCCCC1 [Compound 205]
23 | 91 | 6.74 and 6.92 | 90 | – | CN(CC[C@@H](C1CCCCC1)N1Cc2cc(Oc3ccccc3)ncc2N=C1N)C1CCCCC1 [Compound 206]
24 | 98 | 6.89 | – | – | CC(C)CNC(=O)CC[C@@H](C1CCCCC1)N1Cc2cc(Oc3ccccc3)ncc2N=C1N [Compound 208]
25 | 93 | 6.92 | – | – | CC(C)CN(C)CCC[C@@H](C1CCCCC1)N1Cc2cc(Oc3ccccc3)ncc2N=C1N [Compound 209]
26 | 98 | 6.92 | – | – | NC1=Nc2cnc(Oc3ccccc3)cc2CN1[C@@H](CCC(=O)NC[C@H]1CCCO1)C1CCCCC1 [Compound 210]
27 | 88 | 6.80 | – | – | NC1=Nc2cnc(Oc3ccccc3)cc2CN1[C@@H](CCCNC[C@H]1CCCO1)C1CCCCC1 [Compound 211]
28 | 99 | 7.12 | – | – | NC1=Nc2cnc(Oc3ccccc3)cc2CN1[C@@H](CCC(=O)NCC1CC1)C1CCCCC1 [Compound 212]
29 | 88 | 6.62 | – | – | NC1=Nc2cnc(Oc3ccccc3)cc2CN1[C@@H](CCCNCC1CC1)C1CCCCC1 [Compound 213]
30 | 57 | 6.03 and 6.00 | 53 | – | CC(C)(C)CNCC[C@@H](C1CCCCC1)N1Cc2cc(Oc3ccccc3)ncc2N=C1N [Compound 214]
31 | 96 | 7.06 and 6.92 | 95 | – | CC(C)(C)CCNCC[C@@H](C1CCCCC1)N1Cc2cc(Oc3ccccc3)ncc2N=C1N [Compound 216]
32 | 64 | 6.19 | – | – | CC(C)(C)CNC(=O)CC[C@@H](CC1CCOCC1)N1Cc2cc(Oc3ccccc3)ncc2N=C1N [Compound 219]
33 | 52 | 6.01 | – | – | CC(C)[C@H](C(=O)N(C)CCc1ccccc1)N1Cc2cc(Oc3ccccc3)ncc2N=C1N [Compound 221, 2-(2-Amino-6-phenoxy-4H-pyrido[3,4-d]pyrimidin-3-yl)-3,N-dimethyl-N-phenethyl-butyramide hydrochloride salt (R enantiomer)]
34 | 100 | 7.09 | – | – | CC(C)(C)OC[C@@H](NC(=O)CC[C@@H](C1CCCCC1)N1Cc2cc(Oc3ccccc3)ncc2N=C1N)C(=O)N[C@@H](CCC(=O)O)C(=O)O [Compound 224]
